In experiment [1] the target is peptidyldipeptidase A (ACE) (Homo sapiens, UniProt P12821). In words: Inhibitory effect in vitro on peptidyldipeptidase A, Z-Phe-His-Leu as substrate. Type of experiment: biochemical. The procedure: The inhibitory properties of the compounds of the invention are measured using [^3 H]-D-Ala^2 -Leu-encephalin as substrate for neutral endopeptidase, in accordance with the protocol described by Llorens et al. (Biochem. Biophys. Res. Commun., 96, (1980), 1710 sqq), and Z-Phe-His-Leu as substrate in the case of peptidyldipeptidase A in accordance with the protocol described in Biochem. Biophys. Acta, 206, (1970), 136-142.

The target of experiment [2] is neutral endopeptidase (NEP) (Homo sapiens, UniProt P08473). In words: Inhibitory effect in vitro on neutral endopeptidase, [3H]-D-Ala2-Leu-encephalin as substrate. Type of experiment: biochemical. To be noted: in vitro.
neutral endopeptidase (NEP), sequence (P08473 whole entry, species assumed): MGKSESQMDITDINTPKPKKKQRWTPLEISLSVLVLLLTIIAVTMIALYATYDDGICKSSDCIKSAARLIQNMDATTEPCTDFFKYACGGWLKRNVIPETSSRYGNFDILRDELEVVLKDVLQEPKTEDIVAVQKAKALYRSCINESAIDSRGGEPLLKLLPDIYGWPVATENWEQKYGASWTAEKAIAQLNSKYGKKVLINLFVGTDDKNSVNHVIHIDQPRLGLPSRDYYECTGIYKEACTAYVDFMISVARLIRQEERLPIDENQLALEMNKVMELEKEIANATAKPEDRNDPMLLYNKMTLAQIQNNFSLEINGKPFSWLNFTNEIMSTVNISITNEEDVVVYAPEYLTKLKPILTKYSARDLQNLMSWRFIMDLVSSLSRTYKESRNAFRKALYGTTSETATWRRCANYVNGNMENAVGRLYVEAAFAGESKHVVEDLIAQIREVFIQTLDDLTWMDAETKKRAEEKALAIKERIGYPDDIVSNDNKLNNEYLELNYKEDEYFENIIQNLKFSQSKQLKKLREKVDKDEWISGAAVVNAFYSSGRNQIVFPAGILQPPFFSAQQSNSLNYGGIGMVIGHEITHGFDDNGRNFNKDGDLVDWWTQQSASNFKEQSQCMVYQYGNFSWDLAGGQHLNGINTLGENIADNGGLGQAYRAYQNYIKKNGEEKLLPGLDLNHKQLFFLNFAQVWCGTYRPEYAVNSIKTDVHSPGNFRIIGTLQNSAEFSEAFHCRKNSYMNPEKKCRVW

peptidyldipeptidase A (ACE), sequence (P12821 30-1306, species assumed): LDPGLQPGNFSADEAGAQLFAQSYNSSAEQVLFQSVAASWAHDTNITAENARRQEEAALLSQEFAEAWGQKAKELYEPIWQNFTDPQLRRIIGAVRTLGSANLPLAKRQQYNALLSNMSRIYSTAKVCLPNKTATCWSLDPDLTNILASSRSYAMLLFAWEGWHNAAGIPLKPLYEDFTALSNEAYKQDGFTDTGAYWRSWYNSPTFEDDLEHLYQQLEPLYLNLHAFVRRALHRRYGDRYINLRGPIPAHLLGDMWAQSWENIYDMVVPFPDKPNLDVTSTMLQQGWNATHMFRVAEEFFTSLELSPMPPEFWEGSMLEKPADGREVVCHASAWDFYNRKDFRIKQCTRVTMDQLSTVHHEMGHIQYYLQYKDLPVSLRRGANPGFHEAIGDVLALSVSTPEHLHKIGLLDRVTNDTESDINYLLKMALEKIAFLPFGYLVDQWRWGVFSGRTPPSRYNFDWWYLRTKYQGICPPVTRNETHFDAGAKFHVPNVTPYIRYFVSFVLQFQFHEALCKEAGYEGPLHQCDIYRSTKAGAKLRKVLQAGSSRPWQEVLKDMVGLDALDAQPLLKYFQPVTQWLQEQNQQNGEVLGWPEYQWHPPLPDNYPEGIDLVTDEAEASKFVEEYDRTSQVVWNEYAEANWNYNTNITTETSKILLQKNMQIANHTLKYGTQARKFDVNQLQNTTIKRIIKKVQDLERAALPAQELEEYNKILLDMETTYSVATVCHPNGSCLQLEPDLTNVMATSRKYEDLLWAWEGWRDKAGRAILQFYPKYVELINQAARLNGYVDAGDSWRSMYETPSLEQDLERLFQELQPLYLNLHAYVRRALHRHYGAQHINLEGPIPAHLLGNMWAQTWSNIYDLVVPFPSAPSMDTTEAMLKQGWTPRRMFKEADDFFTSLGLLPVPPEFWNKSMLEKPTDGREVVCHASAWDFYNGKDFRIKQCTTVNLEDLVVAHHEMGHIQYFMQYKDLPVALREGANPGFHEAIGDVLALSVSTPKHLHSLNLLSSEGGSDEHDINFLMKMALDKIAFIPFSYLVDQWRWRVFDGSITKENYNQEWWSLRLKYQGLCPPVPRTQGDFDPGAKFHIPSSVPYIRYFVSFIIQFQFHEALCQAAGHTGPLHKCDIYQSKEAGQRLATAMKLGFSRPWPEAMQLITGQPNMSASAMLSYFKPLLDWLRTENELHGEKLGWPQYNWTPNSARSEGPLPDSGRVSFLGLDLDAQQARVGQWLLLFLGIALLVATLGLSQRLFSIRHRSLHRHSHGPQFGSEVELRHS

For the compound `O=C(NCC(=O)N1C(c2ccccc2)CC[C@H]1C(=O)O)C(S)Cc1ccccc1` (some centres unmarked) [Example 3, N-[N-(2-Mercapto-3-phenylpropanoyl)glycyl]-5-phenylproline], the IC50 worked out at 0.55 ± 0.05 nM in experiment [1] and 1.6 ± 0.3 nM in experiment [2].
On to `O=C(NCC(=O)N1C(c2ccccc2O)CC[C@H]1C(=O)O)C(S)Cc1ccccc1` (some centres unmarked) [Example 5, N-[N-(2-Mercapto-3-phenylpropanoyl)glycyl]-5-(ortho-hydroxyphenyl)-proline], for which the IC50 in experiment [1] worked out at 0.5 ± 0.1 nM; in experiment [2] it was 1.1 ± 0.3 nM.
With `O=C(NCC(=O)N1C(c2ccccc2O)CC[C@H]1C(=O)O)C(S)Cc1ccc(O)cc1` (some centres unmarked) [Example 7, N-[N-[2-Mercapto-3-(para-hydroxyphenyl)propanoyl]glycyl]-5-(ortho-hydroxyphenyl)proline], the IC50 amounted to 0.35 ± 0.05 nM in experiment [1] and 4.3 ± 0.3 nM in experiment [2].
Regarding `O=C(NCC(=O)N1C(c2ccccc2)CC[C@H]1C(=O)O)C(S)Cc1ccc(O)cc1` (some centres unmarked) [Example 10, N-[N-[2-Mercapto-3-(para-hydroxyphenyl)propanoyl]glycyl]-5-phenylproline], the IC50 in experiment [1] was found to be 4.2 ± 0.4 nM; in experiment [2], 3.4 ± 0.8 nM.
As to `Nc1ccc(CC(S)C(=O)NCC(=O)N2C(c3ccccc3)CC[C@H]2C(=O)O)cc1` (some centres unmarked) [Example 14, N-[N-[2-Mercapto-3-(para-aminophenyl)propanoyl]glycyl]-5-phenylproline], the IC50 is 3.5 ± 0.5 nM in experiment [1] and 1.8 ± 0.4 nM in experiment [2].
Taken in the same sequence, the figures for `Nc1ccc(C2CC[C@@H](C(=O)O)N2C(=O)CNC(=O)C(S)Cc2ccc(O)cc2)cc1` (some centres unmarked) [Example 16, N-[N-[2-Mercapto-3-(para-hydroxyphenyl)propanoyl]glycyl]-5-(para-aminophenyl)proline] were 23 ± 3 nM and 26 ± 3 nM.
As to `O=C(NCC(=O)N1C(c2cccc(O)c2)CC[C@H]1C(=O)O)C(S)Cc1ccc(O)cc1` (some centres unmarked) [Example 18, N-[N-[2-Mercapto-3-(para-hydroxyphenyl)propanoyl]glycyl]-5-(metahydroxyphenyl)proline], the IC50 was determined as 0.7 ± 0.2 nM in experiment [1] and 1.6 ± 0.3 nM in experiment [2].
With `O=C(NCC(=O)N1C(c2cccc(O)c2)CC[C@H]1C(=O)O)C(S)Cc1ccccc1` (some centres unmarked) [Example 20, N-[N-(2-Mercapto-3-phenylpropanoyl)glycyl]-5-(meta-hydroxyphenyl)proline], the IC50 in experiment [1] came to 1.4 ± 0.7 nM; in experiment [2], 2.4 ± 0.8 nM.
As for `O=C(NCC(=O)N1C(c2ccc(O)cc2)CC[C@H]1C(=O)O)C(S)Cc1ccc(O)cc1` (some centres unmarked) [Example 22, N-[N-[2-Mercapto-3-(para-hydroxyphenyl)propanoyl]glycyl]-5,(para-hydroxyphenyl)proline], the IC50 in experiment [1] stood at 0.45 ± 0.05 nM; in experiment [2] it was 6 ± 1 nM.
For `O=C(NCC(=O)N1C(c2ccccc2O)CC[C@H]1C(=O)O)C(S)Cc1ccc(Cl)cc1` (some centres unmarked) [Example 24], the IC50 amounted to 0.9 ± 0.06 nM in experiment [1] and 1.2 ± 0.4 nM in experiment [2].
Regarding `COc1ccc(CC(S)C(=O)NCC(=O)N2C(c3ccccc3O)CC[C@H]2C(=O)O)cc1` (some centres unmarked) [Example 26, N-[N-[2-Mercapto-3-(para-methoxyphenyl)propanoyl]glycyl]-5-(orthohydroxyphenyl)proline], the figures for the concentration for half-maximal inhibition (IC50) in experiment [1] and in experiment [2] were 0.4 ± 0.05 nM and 2.3 ± 0.3 nM, respectively.
For the compound `COc1ccc(CC(S)C(=O)NCC(=O)N2C(c3ccccc3OC)CC[C@H]2C(=O)O)cc1` (some centres unmarked) [Example 28, N-[N-[2-Mercapto-3-(para-methoxyphenyl)propanoyl]glycyl]-5-(orthomethoxyphenyl)proline], the IC50 in experiment [1] was 2.2 ± 0.2 nM; in experiment [2], 2.5 ± 0.6 nM.
Turning to `Cc1ccc(C2CC[C@@H](C(=O)O)N2C(=O)CNC(=O)C(S)Cc2ccccc2)cc1` (some centres unmarked) [Example 30, N-[N-(2-Mercapto-3-phenylpropanoyl)glycyl]-5-(para-methylphenyl)proline], the IC50 was 8.2 ± 0.5 nM in experiment [1] and 10 ± 2 nM in experiment [2].
Turning to `Cc1ccc(C2CC[C@@H](C(=O)O)N2C(=O)CNC(=O)C(S)Cc2ccc(O)cc2)cc1` (some centres unmarked) [Example 32, N-[N-[2-Mercapto-3-(para-hydroxyphenyl)propanoyl]glycyl]-5-(para-methylphenyl)proline], the results for the IC50 in experiment [1] and in experiment [2] were 3.2 ± 0.4 nM and 5 ± 0.5 nM, respectively.
For `Cc1ccccc1C1CC[C@@H](C(=O)O)N1C(=O)CNC(=O)C(S)Cc1ccc(O)cc1` (some centres unmarked) [Example 34, N-[N-[2-Mercapto-3-(para-hydroxyphenyl)propanoyl]glycyl]-5-(ortho-methylphenyl)proline], the IC50 in experiment [1] came to 5.2 ± 0.5 nM; in experiment [2], 3.1 ± 0.3 nM.
As to `Cc1ccccc1C1CC[C@@H](C(=O)O)N1C(=O)CNC(=O)C(S)Cc1ccccc1` (some centres unmarked) [Example 36, N-[N-(2-Mercapto-3-phenylpropanoyl)glycyl]-5-(ortho-methylphenyl)proline], the results for the IC50 in experiment [1] and in experiment [2] were 3.5 ± 0.6 nM and 4 ± 0.6 nM, respectively.

(Values after patent publication US5741781A, “Mercaptoalkanoyldipeptide compounds” (Adir et Compagnie, priority 1995, dated 1998).)
